Measurements: ChEMBL document CHEMBL4823324, “Discovery of BMS-986318, a Potent Nonbile Acid FXR Agonist for the Treatment of Nonalcoholic Steatohepatitis” (ACS Med Chem Lett, 2021)

How the values were obtained:
Androgen receptor = target: T1, Androgen receptor (Homo sapiens, UniProt P10275); test: Activation of androgen receptor (unknown origin) by fluorescence polarization based competition assay
T1 sequence (P10275 whole entry): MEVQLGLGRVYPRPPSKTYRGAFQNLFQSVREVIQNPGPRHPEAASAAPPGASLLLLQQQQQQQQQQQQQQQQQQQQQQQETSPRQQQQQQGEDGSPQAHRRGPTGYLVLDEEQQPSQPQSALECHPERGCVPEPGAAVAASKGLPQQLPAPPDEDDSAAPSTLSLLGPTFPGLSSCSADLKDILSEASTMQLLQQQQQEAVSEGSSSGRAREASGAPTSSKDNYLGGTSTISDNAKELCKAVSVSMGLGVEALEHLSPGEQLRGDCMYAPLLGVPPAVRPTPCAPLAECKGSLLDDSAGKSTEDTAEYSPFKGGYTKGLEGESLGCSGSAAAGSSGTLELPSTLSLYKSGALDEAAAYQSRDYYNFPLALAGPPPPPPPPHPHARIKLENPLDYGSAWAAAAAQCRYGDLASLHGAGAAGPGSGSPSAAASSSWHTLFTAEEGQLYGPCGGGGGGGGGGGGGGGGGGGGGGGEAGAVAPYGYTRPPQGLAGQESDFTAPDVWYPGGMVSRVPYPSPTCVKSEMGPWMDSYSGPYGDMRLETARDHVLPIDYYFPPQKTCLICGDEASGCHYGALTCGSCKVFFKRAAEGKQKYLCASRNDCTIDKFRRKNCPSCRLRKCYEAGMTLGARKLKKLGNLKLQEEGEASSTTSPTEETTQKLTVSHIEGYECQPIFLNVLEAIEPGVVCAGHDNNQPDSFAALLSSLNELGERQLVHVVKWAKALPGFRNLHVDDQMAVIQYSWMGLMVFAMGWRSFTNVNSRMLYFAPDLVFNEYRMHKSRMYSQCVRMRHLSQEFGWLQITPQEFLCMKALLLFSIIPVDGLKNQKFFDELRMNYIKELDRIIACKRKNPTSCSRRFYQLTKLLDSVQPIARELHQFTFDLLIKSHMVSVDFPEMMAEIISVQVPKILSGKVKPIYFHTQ

Progesterone receptor = target: T2, Progesterone receptor (Homo sapiens, UniProt P06401); test: Activation of progesterone receptor (unknown origin) by fluorescence polarization based competition assay
T2 sequence (P06401 whole entry): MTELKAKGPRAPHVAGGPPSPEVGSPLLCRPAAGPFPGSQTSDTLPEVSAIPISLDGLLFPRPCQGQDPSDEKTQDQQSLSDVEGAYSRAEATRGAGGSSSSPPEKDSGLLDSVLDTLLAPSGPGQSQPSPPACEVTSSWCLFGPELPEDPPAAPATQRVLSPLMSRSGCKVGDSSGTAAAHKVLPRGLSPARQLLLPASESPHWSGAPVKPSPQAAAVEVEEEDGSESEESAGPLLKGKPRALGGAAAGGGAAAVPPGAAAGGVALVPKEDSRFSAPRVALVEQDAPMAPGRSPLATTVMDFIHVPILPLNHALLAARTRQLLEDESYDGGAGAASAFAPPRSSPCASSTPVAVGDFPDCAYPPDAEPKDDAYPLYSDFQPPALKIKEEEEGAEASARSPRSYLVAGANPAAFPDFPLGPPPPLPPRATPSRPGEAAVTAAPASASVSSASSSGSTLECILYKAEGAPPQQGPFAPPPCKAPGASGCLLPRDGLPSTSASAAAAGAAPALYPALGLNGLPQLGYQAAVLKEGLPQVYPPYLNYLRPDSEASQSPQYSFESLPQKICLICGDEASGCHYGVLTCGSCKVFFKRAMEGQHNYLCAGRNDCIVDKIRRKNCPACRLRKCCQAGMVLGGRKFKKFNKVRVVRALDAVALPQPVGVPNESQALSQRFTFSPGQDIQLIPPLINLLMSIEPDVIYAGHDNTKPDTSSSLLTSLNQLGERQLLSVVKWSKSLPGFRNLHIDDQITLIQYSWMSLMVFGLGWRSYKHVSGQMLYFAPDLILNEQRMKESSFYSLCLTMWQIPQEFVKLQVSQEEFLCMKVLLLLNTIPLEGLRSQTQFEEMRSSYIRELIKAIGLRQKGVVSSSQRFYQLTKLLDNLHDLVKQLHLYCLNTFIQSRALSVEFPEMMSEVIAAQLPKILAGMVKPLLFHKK

[1] = AUC in C57B6 mouse at 2 mg/kg, po administered as solution; format: ADME, organism-based; design: dose 2 mg/kg; conditions: in vivo
[2] = AUC in C57B6 mouse at 2 mg/kg, po administered as suspension; format: ADME, organism-based; design: dose 2 mg/kg; conditions: in vivo
[3] = Half life in C57B6 mouse at 1 mg/kg, iv; format: ADME, organism-based; conditions: in vivo
[4] = Oral bioavailability in C57B6 mouse at 2 mg/kg administered as solution; format: ADME, organism-based; conditions: in vivo
[5] = target: T3, Nuclear receptor ROR-alpha (Homo sapiens, UniProt P35398); test: Agonist activity at human RORalpha (272 to 557 residues) co-expressed with Gal4-luciferase reporter in human Jurkat cells incubated for 18 hrs by Steady-Glo luciferase reporter based luminescence analysis; format: cell-based
T3 sequence (P35398 whole entry): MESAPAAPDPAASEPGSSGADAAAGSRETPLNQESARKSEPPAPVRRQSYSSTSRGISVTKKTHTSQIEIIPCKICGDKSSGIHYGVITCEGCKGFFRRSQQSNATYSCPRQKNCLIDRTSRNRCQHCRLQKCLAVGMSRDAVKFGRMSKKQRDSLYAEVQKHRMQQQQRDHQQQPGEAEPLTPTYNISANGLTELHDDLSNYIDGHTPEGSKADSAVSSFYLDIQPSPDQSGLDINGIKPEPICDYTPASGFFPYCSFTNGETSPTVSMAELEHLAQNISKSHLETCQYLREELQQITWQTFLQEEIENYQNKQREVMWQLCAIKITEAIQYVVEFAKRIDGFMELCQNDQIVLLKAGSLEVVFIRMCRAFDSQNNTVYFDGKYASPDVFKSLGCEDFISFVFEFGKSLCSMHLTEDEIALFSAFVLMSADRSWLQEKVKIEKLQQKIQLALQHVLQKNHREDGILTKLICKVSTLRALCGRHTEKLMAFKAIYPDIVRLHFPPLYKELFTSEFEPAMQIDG

- EC50 (Androgen receptor): > 40 µM
- EC50 (Progesterone receptor): > 40 µM
- AUC [1]: 6.65 µM·h
- AUC [2]: 4.76 µM·h
- half-life [3]: 2.6 h
- bioavailability [4]: 36%
- EC50 [5]: > 40 µM
Compound: O=C(O)c1cc(C(F)(F)F)c2cc(N3CCC4(C=C(c5c(-c6c(Cl)cncc6Cl)noc5C5CC5)C4)CC3)ccc2n1
